Measured values published in ChEMBL document CHEMBL5380792, “Discovery of CZS-241: A Potent, Selective, and Orally Available Polo-Like Kinase 4 Inhibitor for the Treatment of Chronic Myeloid Leukemia” (J Med Chem, 2023).

Key:
in vitro [1] = conditions: human, liver microsomes
in vitro [2] = conditions: human, plasma
in vitro [3] = conditions: human, plasma; remark: listed apart in the source
in vitro [4] = conditions: human, plasma; remark: listed apart in the source
in vitro [5] = conditions: human, plasma; remark: listed apart in the source
in vitro [6] = conditions: human, plasma; remark: listed apart in the source
in vitro [7] = conditions: human, liver microsomes; remark: listed apart in the source
in vitro [8] = conditions: human, liver microsomes; remark: listed apart in the source

O=C(O)Cc1ccccc1Nc1c(Cl)cccc1Cl [DICLOFENAC]
half-life (in vitro [1]): 3.2 min

CC(C)[N+](C)(CCOC(=O)C1c2ccccc2Oc2ccccc21)C(C)C.[Br-] [PROPANTHELINE BROMIDE]
half-life (in vitro [2]): 19.8 min

C[C@]12CC[C@H]3[C@@H](CCC4=CC(=O)CC[C@@]43C)[C@@H]1CC[C@@H]2O [TESTOSTERONE]
half-life (in vitro [1]): 11.4 min

COc1c(Nc2cc(C)[nH]n2)nc(Sc2ccc(S(=O)(=O)Cc3cccc([N+](=O)[O-])c3F)cc2F)nc1N1CCOCC1
remaining at 2 h (in vitro [3]): 97.3%
remaining at 0.5 h (in vitro [4]): 95%
remaining at 1 h (in vitro [5]): 95.4%
remaining at 10 min (in vitro [6]): 101%
remaining at 1 h (in vitro [7]): 1.7%
remaining at 1 h (in vitro [8]): 98.6%
